In one assay the target is T1, human TLR8 (Homo sapiens, UniProt Q9NR97).
T1 construct: host or cells: HEK-Blue cells
T1 sequence (Q9NR97 27-1041): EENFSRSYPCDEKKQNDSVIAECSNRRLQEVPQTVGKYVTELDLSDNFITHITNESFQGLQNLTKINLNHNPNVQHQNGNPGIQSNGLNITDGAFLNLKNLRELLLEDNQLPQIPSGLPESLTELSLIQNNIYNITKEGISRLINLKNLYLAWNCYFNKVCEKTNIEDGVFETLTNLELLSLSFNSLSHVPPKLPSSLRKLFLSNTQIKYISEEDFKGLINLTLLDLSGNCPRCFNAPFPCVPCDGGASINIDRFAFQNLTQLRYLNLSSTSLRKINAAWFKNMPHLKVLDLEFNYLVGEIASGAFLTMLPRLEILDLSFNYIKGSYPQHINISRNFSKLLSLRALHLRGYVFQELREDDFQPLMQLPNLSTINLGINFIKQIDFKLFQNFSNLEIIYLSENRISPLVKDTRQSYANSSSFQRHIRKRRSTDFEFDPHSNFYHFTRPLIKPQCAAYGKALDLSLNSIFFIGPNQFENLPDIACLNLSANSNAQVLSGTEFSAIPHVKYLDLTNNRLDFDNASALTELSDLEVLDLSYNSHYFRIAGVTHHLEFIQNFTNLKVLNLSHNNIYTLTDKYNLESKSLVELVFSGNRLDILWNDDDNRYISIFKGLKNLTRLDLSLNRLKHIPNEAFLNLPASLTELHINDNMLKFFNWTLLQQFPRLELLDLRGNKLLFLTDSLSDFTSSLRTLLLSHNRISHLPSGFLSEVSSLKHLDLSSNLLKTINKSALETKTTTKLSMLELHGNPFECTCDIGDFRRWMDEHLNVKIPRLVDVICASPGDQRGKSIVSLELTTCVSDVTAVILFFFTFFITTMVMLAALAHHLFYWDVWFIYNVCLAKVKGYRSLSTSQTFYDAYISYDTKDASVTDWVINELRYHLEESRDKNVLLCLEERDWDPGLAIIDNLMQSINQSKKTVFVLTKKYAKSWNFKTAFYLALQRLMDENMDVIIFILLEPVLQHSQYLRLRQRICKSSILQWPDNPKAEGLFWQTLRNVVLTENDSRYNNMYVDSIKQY
Nature of the assay: TLR8 inhibition reporter assay (HEK-Blue SEAP). Type of assay: cell-based. The settings on record: HEK-Blue cells overexpressing human TLR8, R848 15.9 μM, 22 hour incubation. Summed up: (§1)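 Agonists used: gardiquimod 7.5 μM (TLR7), R848 15.9 μM (TLR8), ODN2006 5 nM (TLR9), added after 30 min room-temperature compound pre-treatment (0.05 nM–50 μM) of receptor-overexpressing HEK-Blue cells. SEAP reporter (NF-κB/AP-1 driven) read after 22 h at 37 °C; inhibition scaled between agonist+DMSO and reference-inhibitor wells.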

For another assay, the target named is T2, human TLR9 (Homo sapiens, UniProt Q9NR96).
T2 construct: host or cells: HEK-Blue cells
T2 sequence (Q9NR96 26-1032): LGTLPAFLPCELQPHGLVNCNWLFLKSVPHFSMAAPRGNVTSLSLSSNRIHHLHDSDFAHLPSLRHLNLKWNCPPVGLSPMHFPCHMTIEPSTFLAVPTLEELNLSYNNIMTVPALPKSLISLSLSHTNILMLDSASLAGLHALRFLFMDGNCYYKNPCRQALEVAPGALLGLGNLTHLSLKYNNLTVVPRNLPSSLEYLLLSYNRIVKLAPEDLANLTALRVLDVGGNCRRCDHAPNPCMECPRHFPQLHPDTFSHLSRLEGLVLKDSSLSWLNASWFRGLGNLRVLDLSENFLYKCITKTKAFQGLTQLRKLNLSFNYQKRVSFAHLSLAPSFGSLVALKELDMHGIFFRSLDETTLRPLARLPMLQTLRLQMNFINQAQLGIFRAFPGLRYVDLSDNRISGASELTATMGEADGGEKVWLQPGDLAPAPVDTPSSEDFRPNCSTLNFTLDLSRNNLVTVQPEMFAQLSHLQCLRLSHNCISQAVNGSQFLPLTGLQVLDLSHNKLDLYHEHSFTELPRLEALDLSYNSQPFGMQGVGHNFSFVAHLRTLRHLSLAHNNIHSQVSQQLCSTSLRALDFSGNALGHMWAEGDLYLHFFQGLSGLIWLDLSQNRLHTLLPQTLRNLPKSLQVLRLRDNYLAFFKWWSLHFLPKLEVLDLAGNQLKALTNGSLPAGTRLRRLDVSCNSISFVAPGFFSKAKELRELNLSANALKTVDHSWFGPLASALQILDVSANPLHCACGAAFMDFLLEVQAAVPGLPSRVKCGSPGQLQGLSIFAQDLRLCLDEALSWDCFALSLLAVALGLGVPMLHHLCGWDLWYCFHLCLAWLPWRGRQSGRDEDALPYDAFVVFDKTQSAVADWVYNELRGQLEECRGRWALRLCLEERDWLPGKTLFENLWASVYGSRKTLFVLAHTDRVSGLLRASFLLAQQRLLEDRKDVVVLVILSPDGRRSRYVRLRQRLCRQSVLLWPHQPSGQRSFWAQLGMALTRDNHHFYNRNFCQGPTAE
In words: TLR9 inhibition reporter assay (HEK-Blue SEAP). Particulars: HEK-Blue cells overexpressing human TLR9, ODN2006 5 nM, 22 hour incubation. Type of assay: cell-based. Summed up:
as §1

Structures are written as SMILES.

`COc1cc(-c2cc3[nH]c(=O)n([C@@H]4CCCNC4)c3cc2C)cn2ncnc12` [1 EH, (R)-5-(8-methoxy-[1,2,4]triazolo[1,5-a]pyridin-6-yl)-6-methyl-1-(piperidin-3-yl)-1,3-dihydro-2H-benzo[d]imidazol-2-one]: the IC50 is 49.6 nM at human TLR8 and 809 nM against human TLR9.
Taken in the same sequence, the figures for `COc1cc(-c2cc3[nH]c(=O)n(C4CCC(N5CC6(COC6)C5)CC4)c3cc2C(C)C)cn2ncnc12` (stereo not drawn) [Example 254, 1-(4-(2-oxa-6-azaspiro[3.3]heptan-6-yl)cyclohexyl)-6-isopropyl-5-(8-methoxy-[1,2,4]triazolo[1,5-a]pyridin-6-yl)-1,3-dihydro-2H-benzo[d]imidazol-2-one] were 3.38 nM and 14100 nM.
Taken in the same sequence, the figures for `COc1c(C)c(-c2cc3[nH]c(=O)n(C4CCC(N5CCC6(CC5)COC6)CC4)c3cc2C(C)C)cn2ncnc12` (single isomer, unassigned) [Example 268, 1-(4-(2-oxa-7-azaspiro[3.5]nonan-7-yl)cyclohexyl)-6-isopropyl-5-(8-methoxy-7-methyl-[1,2,4]triazolo[1,5-a]pyridin-6-yl)-1,3-dihydro-2H-benzo[d]imidazol-2-one] were 1.08 nM and 17400 nM.
Regarding `COc1c(C)c(-c2cc3[nH]c(=O)n(C4CCC(N5CC(F)C5)CC4)c3cc2C(C)C)cn2ncnc12` (single isomer, unassigned) [Example 263, 1-(4-(3-fluoroazetidin-1-yl)cyclohexyl)-6-isopropyl-5-(8-methoxy-7-methyl-[1,2,4]triazolo[1,5-a]pyridin-6-yl)-1,3-dihydro-2H-benzo[d]imidazol-2-one], the IC50 against human TLR8 is 2.91 nM; on human TLR9, 19700 nM.
As to `COc1cc(-c2cc3[nH]c(=O)n(C4CCC(N5CC[C@H](F)C5)CC4)c3cc2C(C)C)cn2ncnc12` (stereo partly drawn) [Example 286, (S)-1-(4-(3-fluoropyrrolidin-1-yl)cyclohexyl)-6-isopropyl-5-(8-methoxy-[1,2,4]triazolo[1,5-a]pyridin-6-yl)-1,3-dihydro-2H-benzo[d]imidazol-2-one], the IC50 is 0.9 nM against human TLR8 and 4280 nM against human TLR9.
With `COc1cc(-c2cc3[nH]c(=O)n([C@@H]4CCCNC4)c3cc2C(F)(F)F)cn2ncnc12` [110 F, (R)-5-(8-methoxy-[1,2,4]triazolo[1,5-a]pyridin-6-yl)-1-(piperidin-3-yl)-6-(trifluoromethyl)-1,3-dihydro-2H-benzo[d]imidazol-2-one], the IC50 at human TLR8 is 14.8 nM; against human TLR9, 2710 nM.
For the compound `Cc1cc(-c2cc(C)c3ncnn3c2)cc2[nH]c(=O)n(C3CCNCC3)c12` [106 F, 7-methyl-5-(8-methyl-[1,2,4]triazolo[1,5-a]pyridin-6-yl)-1-(piperidin-4-yl)-1,3-dihydro-2H-benzo[d]imidazol-2-one], the IC50 at human TLR8 is 433 nM; against human TLR9 it was 1020 nM.
The matching figures for `Cc1cc2c(cc1-c1cc(C)c3ncnn3c1)[nH]c(=O)n2[C@@H]1CCCN(C2CCOCC2)C1` [Example 27, (R)-6-methyl-5-(8-methyl-[1,2,4]triazolo[1,5-a]pyridin-6-yl)-1-(1-(tetrahydro-2H-pyran-4-yl)piperidin-3-yl)-1,3-dihydro-2H-benzo[d]imidazol-2-one]: 50 nM and 8500 nM.
Taken in the same sequence, the figures for `Cc1cc2c(cc1-c1cc(C)c3ncnn3c1)[nH]c(=O)n2C1CCCNC1` (stereo not drawn) [1 EC, 6-methyl-5-(8-methyl-[1,2,4]triazolo[1,5-a]pyridin-6-yl)-1-(piperidin-3-yl)-1,3-dihydro-2H-benzo[d]imidazol-2-one] were 22.5 nM and 381 nM.
Taken in the same sequence, the figures for `Cc1cc2c(cc1-c1cc(C)c3ncnn3c1)[nH]c(=O)n2[C@@H]1CCCN(CC(C)(C)C)C1` [Example 26, (R)-6-methyl-5-(8-methyl-[1,2,4]triazolo[1,5-a]pyridin-6-yl)-1-(1-neopentylpiperidin-3-yl)-1,3-dihydro-2H-benzo[d]imidazol-2-one] were 384 nM and 6720 nM.
With `Cc1cc2c(cc1-c1cc(C)c3ncnn3c1)[nH]c(=O)n2[C@H]1CC[C@H](NC(C)C)CC1` [Example 25, 1-((1r,4s)-4-(isopropylamino)cyclohexyl)-6-methyl-5-(8-methyl-[1,2,4]triazolo[1,5-a]pyridin-6-yl)-1,3-dihydro-2H-benzo[d]imidazol-2-one], the half-inhibitory concentration (IC50) against human TLR8 amounted to 11.1 nM; against human TLR9 it was 4350 nM.
As to `COc1cc(-c2cc3[nH]c(=O)n(C4CCC(N5CC6(C5)CS(=O)(=O)C6)CC4)c3cc2C(C)C)cn2ncnc12` (single isomer, unassigned) [Example 245, 1-(4-(2,2-dioxido-2-thia-6-azaspiro[3.3]heptan-6-yl)cyclohexyl)-6-isopropyl-5-(8-methoxy-[1,2,4]triazolo[1,5-a]pyridin-6-yl)-1,3-dihydro-2H-benzo[d]imidazol-2-one], the IC50 against human TLR8 turned out to be 11.7 nM; against human TLR9 it was 17300 nM.

These data come from US12187723B2 (BRISTOL-MYERS SQUIBB COMPANY, priority 2019, dated 2025).
